Data as given in PMC3472742, “Bio-Guided Isolation of the Cytotoxic Terpenoids from the Roots of Euphorbia kansui against Human Normal Cell Lines L-O2 and GES-1” (International Journal of Molecular Sciences, 2012).
pIC50: −log10 of the molar value. Read-outs that look alike come from different tables or passages of the source.

What was measured:
[1] = tested on: human normal liver cells L-O2; test: MTT cell proliferation (cytotoxicity) assay on human normal liver cells L-O2; format: cell-based; settings: for pIC50: 48 h, pure compounds, MTT, n = 6, read-out: IC50 L-O2 (proliferation inhibition)
Description: (§1) Human normal liver cell L-O2 was kindly donated by the School of Life Science, Nanjing Normal University (Nanjing, China), and Human normal gastric epithelial cell GES-1 was kindly donated by the Department of Gastroenterology, Nanjing Drum Tower Hospital (Nanjing, China). Human normal liver cell LO-2 was routinely cultured in DMEM medium, supplemented with 10% (v/v) fetal bovine serum (FBS), 100 U/mL of penicillin and 100 μg/mL of streptomycin in a humidified atmosphere with 5% CO2 at 37 °C in an incubator. The culture medium was changed every day. Cultures were dissociated with 0.25% trypsase in phosphate buffered (pH 7.2~7.4) saline (PBS). Human normal gastric epithelial cell GES-1 was routinely cultured in DMEM medium, supplemented with 15% (v/v) calf serum (CS), 100 U/mL of penicillin and 100 μg/mL of streptomycin in a humidified atmosphere with 5% CO2 at 37 °C in an incubator. The culture medium was changed every two days. Cultures were dissociated with 0.25% trypsase and 0.05% EDTA in PBS (pH 7.2~7.4).
(§2) Cytotoxicity activity was assayed by MTT method as described. Briefly, cells were seeded in 96-well plates (Costar, Corning Co., Ltd., Beijing, China) with 100 μL at a concentration of cell suspension of 1.0 × 10_4 cells/mL (L-O2 cell) and 1.0 × 10_5 cells/mL (GES-1 cell), and incubated for 24 h at 37 °C in a humidified atmosphere of 5% CO2 in an incubator.
(§3) Every sample was solubilized in dimethyl sulfoxide (DMSO) to a concentration of 10 mg/mL and stored at 4 °C, then diluted with complete medium to the desired series concentration before treating the cells. Each solution was added into 96-well plates with 100 μL per well, repeated 6 well. Cells of the control groups were treated with the same volume of medium. The treated cells with different groups were incubated for 48 h at 37 °C in a humidified atmosphere of 5% CO2 in an incubator. Then, the treated cells were added with 20 μL/well of MTT (5.0 mg/mL), and incubated for a further 4 h in an incubator. The growth medium was removed from all the wells, and 150 μL DMSO were added to each well. The plates were shaken gently for 10 min to blend the mixture. The absorbance value of each well was read at 490 nm using a microplate reader. All experiments were performed at least three times. The inhibition rate of cell proliferation was calculated according to the formula:
(§4) (1) cell inhibition (%)=1-sample solution absorbance value/control absorbance value)×100%
(§5) The results were expressed as an inhibition ratio and IC50 (concentration that inhibits 50% of cell growth). The data were analyzed with software SPSS 15.0 (SPSS Inc.: Chicago, IL, USA). The anti-proliferation activity is more significant when the IC50 is smaller.

[2] = tested on: human normal gastric epithelial cell GES-1; test: MTT cell proliferation (cytotoxicity) assay on human normal gastric epithelial cells GES-1; format: cell-based; settings: for pIC50: pure compounds, MTT, 48 h, n = 6, read-out: IC50 GES-1 (proliferation inhibition); for inhibition activity on GES-1 cell lines growth vs control, dose-dependent: Figure 2
Description: as §1, §2, §3, §4, §5

[3] = concentration range 0.78–12.5 μg/mL, Figure 3
[4] = concentration range 0.78–12.5 μg/mL
[5] = concentration range 0.39–6.25 μg/mL

C=C1[C@H](OC(C)=O)[C@@H](OC(=O)c2ccccc2)[C@@H](OC(C)=O)C(C)(C)[C@H]2O[C@](O)([C@H](C)C2=O)[C@@]2(OC(C)=O)C[C@H](C)[C@H](OC(C)=O)[C@@H]2[C@H]1OC(C)=O [Compound 1, kansuinine A]
pIC50 ([1]; Homo sapiens): < 4.00
pIC50 ([2]; Homo sapiens, GES1, 48 h): < 4.00

C=C1C(OC(=O)c2ccccc2)C(O)C(=O)C(C)(C)C2OC2C(C)C(=O)C2(O)C(C1OC(=O)c1ccccc1)C(OC(C)=O)C(C)(O)C2OC(C)=O (stereo not drawn) [Compound 2, kansuinine B]
pIC50 ([1]; Homo sapiens): < 4.00
pIC50 ([2]; Homo sapiens, GES1, 48 h): < 4.00

CC(=O)OC1C(C)=CC23C(=O)C(C=C(C)C(OC(=O)c4ccccc4)C12O)C1C(CC3C)C1(C)C (stereo not drawn) [Compound 4, kansuiphorin C]
pIC50 ([1]; Homo sapiens): < 4.00
pIC50 ([2]; Homo sapiens, GES1, 48 h): < 4.00

CCCCCC=CC=CC(=O)OC1C(C)=CC23C(=O)C(C=C(COC(C)=O)C(O)C12O)C1C(CC3C)C1(C)C (stereo not drawn) [Compound 5, 3-O-(2′E,4′Z-Decadienoyl)-20-O-acetylingenol]
pIC50 ([1]; Homo sapiens): 4.91
inhibition activity on L-O2 cell lines growth vs control, dose-dependent [1, 3]: significant inhibition activity
pIC50 ([2]; Homo sapiens, GES1, 48 h): 5.07
inhibition activity on GES-1 cell lines growth vs control, dose-dependent [2, 4]: significant inhibition activity

CCCCCC=CC=CC(=O)OC1C(C)=CC23C(=O)C(C=C(COC(C)=O)C(O)C12O)C1C(CC3C)C1(C)C (stereo not drawn) [Compound 6, 3-O-(2′E,4′E-Decadienoyl)-20-O-acetylingenol]
inhibition activity on L-O2 cell lines growth vs control, dose-dependent [1, 3]: significant inhibition activity
pIC50 [1]: 5.09
inhibition activity on GES-1 cell lines growth vs control, dose-dependent [2, 5]: significant inhibition activity
pIC50 [2]: 5.18

CCCCCC=CC=CC(=O)OC1C(C)=CC23C(=O)C(C=C(C)C(O)C12O)C1C(CC3C)C1(C)C (stereo not drawn) [Compound 7, 3-O-(2′E,4′Z-Decadienoyl)-20-deoxyingenol]
pIC50 ([1]; Homo sapiens): 4.88
inhibition activity on L-O2 cell lines growth vs control, dose-dependent [1, 3]: significant inhibition activity
pIC50 ([2]; Homo sapiens, GES1, 48 h): 5.45
inhibition activity on GES-1 cell lines growth vs control, dose-dependent [2, 4]: significant inhibition activity

CC1=CC2C(=O)C3(C=C(C)C(OC(=O)c4ccccc4)C3(O)C1O)C(C)CC1C2C1(C)C (stereo not drawn) [Compound 8, 3-O-Benzoyl-20-deoxyingenol]
pIC50 ([1]; Homo sapiens): 4.15
inhibition activity on L-O2 cell lines growth vs control ([1]; concentration range 3.125–50 μg/mL, Figure 3): significant inhibition activity
pIC50 ([2]; Homo sapiens, GES1, 48 h): 4.63
inhibition activity on GES-1 cell lines growth vs control, dose-dependent [2, 4]: significant inhibition activity

CC1=CC23C(=O)C(C=C(C)C(OC(=O)c4ccccc4)C2(O)C1O)C1C(CC3C)C1(C)C (stereo not drawn) [Compound 9, 5-O-Benzoyl-20-deoxyingenol]
pIC50 ([1]; Homo sapiens): 4.46
inhibition activity on L-O2 cell lines growth vs control, dose-dependent ([1]; concentration range 1.56–25 μg/mL, Figure 3): significant inhibition activity
pIC50 ([2]; Homo sapiens, GES1, 48 h): 4.66
inhibition activity on GES-1 cell lines growth vs control, dose-dependent ([2]; concentration range 1.56–25 μg/mL): significant inhibition activity

CC(C)=CCC[C@H](C)[C@@H]1CC[C@]2(C)C3=C(CC[C@@]12C)[C@@]1(C)CC[C@H](O)C(C)(C)C1CC3=O (stereo partly drawn) [Compound 11, epi-kansenone]
melting point: 116 to 118 °C
pIC50 ([1]; Homo sapiens): 4.75
inhibition activity on L-O2 cell lines growth vs control, dose-dependent [1, 3]: significant inhibition activity
pIC50 ([2]; Homo sapiens, GES1, 48 h): 5.09
inhibition activity on GES-1 cell lines growth vs control, dose-dependent [2, 5]: significant inhibition activity

CC(C)=CCC[C@@H](C)[C@@H]1CC[C@]2(C)C3=C(CC[C@@]12C)[C@@]1(C)CC[C@H](O)C(C)(C)[C@@H]1CC3 [Compound 12, euphol]
pIC50 ([1]; Homo sapiens): < 4.00
pIC50 ([2]; Homo sapiens, GES1, 48 h): < 4.00
